The text below walks through data of patent US20230107216A1, “PANTETHEINE DERIVATIVES AND USES THEREOF” (Comet Therapeutics, Inc., priority 2018, published 2023).

Like-named read-outs stand apart in the source and are kept apart here. A value given as a limit tells only on which side of the number the result lay.

The subject of test [1] is Venular Endothelial cells (HUVEC) (4H system). The experiment in a line: BioMAP 4H system (IL-4 and histamine). Type of test: cell-based, human. To be noted: procedure of Example 826; for % decrease in Eotaxin-3: 1 uM.
For test [2], the system named is Peripheral blood mononuclear cells co-cultured with venular endothelial cells (HUVEC) (LPS system). The test can be described thus: BioMAP LPS system. The test is classed as cell-based, human. To be noted: Homo sapiens, HUVEC, 24 h, 10 uM, procedure of Example 827.
Test [3] concerns monocyte-derived M1 macrophages. The test can be described thus: M1 differentiation assay (macrophage TNFα, IL6, IL10 ELISA, FACS). Type of test: cell-based, human. To be noted: Homo sapiens, Macrophage. As to the method: Monocytes were isolated by positive isolation with CD14+ microbeads (Miltenyi, 130-050-201). Monocytes were 99% viable and were 96% purity as analyzed by FACS and CD14+ (BD, 563561). 100,000 monocytes along with compounds at the dose of 10 and 50 μM were allowed to differentiate to macrophages with 10 ng/ml GMCSF (R&D, 15-GM-050/CF) in RPMI complete media (Invitrogen, 22400089) with 15% FBS (Hyclone SV30087.03) and 1% Penicillin-Streptomycin (Gibco, 15140-122). On day 2 and 4 half the media was refreshed with fresh GM-CSF and compounds at 10 and 50 μM dose. On day 6 the macrophages were matured with GMCSF, IFNγ (R&D 285-IF-100/CF) and LPS (Sigma, L6143) in the presence of 10 μM and 50 μM of compounds. After 24h, supernatant was collected for the measurement of TNFα (DKW, 1117202) IL6 (DKW, 1110602), IL10 (DKW, 1110003) by ELISA. Macrophages were detached gently on ice with EDTA (Invitrogen, 15575-038) and analyzed by FACS (BD LSR Fortessa, 853492). Cells were stained for live/dead dye, surface and intracellular markers with fixation/permeabilization solution (BD, 554714) and ALIVE/DEAD™ Fixable Near-IR Dead Cell Stain Kit (BD, L34976), mouse anti human CD86 APC (BD, 555660), mouse anti-human CD163 PE (BD, 556018), mouse anti-human CD68 FITC (BD, 562117) or isotype controls anti-mouse IgG1 κ PE (BD, 559320) and anti-mouse IgG1 κ APC (BD, Anti mouse IgG1 κ APC (BD, 55571). Mature M1 macrophages were defined as CD86+CD68+CD163− and increase in TNFα, IL6, and decrease in IL-10.

Test [4] relates to Methylmalonic Acidemia (MMA) primary fibroblasts Tsi 5224. The test can be described thus: Mitochondrial respiration, XFe96 Extracellular Flux Analyzer (OCR/ECAR), MMA fibroblasts Tsi 5224.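 Further: relative to vehicle DMSO control.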 The test is classed as cell-based. To be noted: Homo sapiens, Fibroblast, read-out: Increase in Maximal Respiratory Capacity AUC. As to the method:
The effect of the compounds of the present disclosure on mitochondrial respiration was measured with a XFe96 Extracellular Flux Analyzer (Seahorse Bioscience, Agilent Technologies) and Oxygen consumption Rate (OCR) and Extracellular acidification rate (ECAR) determined.
Cell culture and treatments. Primary adherent fibroblasts were cultured in minimum essential medium (MEM) (Gibco, 25030081) supplemented with 2 mM L-Glutamine (Gibco, 25030081), 15% fetal bovine serum (FBS) (Gibco, 26400044) and 1% penicillin/streptomycin (Gibco, 5140122) at 37° C. and 5% CO2. Cells were collected for either passaging or experiment at ˜70-80% confluence. Cells were obtained by trypsinization and seeded at 20000 cells/well in cell culture microplates (Seahorse Bioscience, 101085-004) and allowed to adhere for 16 hours in culture media.
By profiling different primary cells and/or optimizing their culture media or environmental components one can select cell lines and/or conditions that are appropriate for the biological or disease model. In the present example, 24 hours prior to OCR and ECAR profiling, media was changed to Dulbecco's Modified Eagle Medium (DMEM, Agilent Seahorse 103575-100) with the appropriate supplements for the different primary cells (10 mM glucose, 2 mM L-glutamine, 1 mM pyruvate, 10% FBS; 1 mM glucose, 2 mM L-glutamine, 1 mM pyruvate, 10% FBS; 10 mM glucose, 10% FBS; 5 mM glucose 10% FBS; 1 mM glucose 10% FBS). Cells used in this example were: Propionic Acidemia (PA) (GM00371, GM03590 Coriell Institute for Medical Research, Tsi 6337, Tsi 4626, Tsi 3618 Trans-Hit Bio), Methylmalonic Acidemia (MMA) (GM01673, Coriell Institute for Medical Research, Tsi 5224 Trans-Hit Bio), Branched chain ketoacid dehydrogenase kinase (BCKDK) (GM00612, GM00649 Coriell Institute for Medical Research), Subnormal activation of pyruvate dehydrogenase complex (PDH) (GM01503 Coriell Institute for Medical Research), Very long-chain acyl-CoA dehydrogenase (VLCAD) (GM17475), Leigh Syndrome (LS) (GM03672, GM13411 Coriell Institute for Medical Research), Pyruvate Carboxylase Deficiency (PC) (GM00444 Coriell Institute for Medical Research), Glutaric Acidemia-I (GA) (GM10653), Friedreich's Ataxia (FXN) (GM04078 Coriell Institute for Medical Research, Huntington's disease (HD) (GM21756 Coriell Institute for Medical Research), Ornithine Transcarbamylase Deficiency (OTC) (GM12756 Coriell Institute for Medical Research), Kearns-Sayre Syndrome (KSS) (GM06225 Coriell Institute for Medical Research).
One hour before the assay, the cells were washed with freshly prepared unbuffered serum free-Seahorse XF Assay medium (Seahorse Bioscience, North America, USA, 103575-100) with the same supplements as for the previous 24 hour incubation.
After baseline measurements of OCR, cells were challenged with compounds of the present disclosure at different concentrations (10 to 50 μM) or vehicle (DMSO, 0.1%) and a post-compound baseline was recorded. OCR was measured after sequentially adding to each well 1 μg/ml oligomycin (inhibitor of ATP synthase Sigma-Aldrich, 753531), then maximal OCR was determined with carbonyl cyanide 4-(trifluoromethoxy) phenylhydrazone (FCCP, Sigma-Aldrich, C2920), (uncoupler of oxidative phosphorylation) and 0.5 μM of rotenone (Sigma-Aldrich, R8875) plus antimycin A (Sigma-Aldrich, A8674) (inhibitors of mitochondrial complex I and III) for determination of rotenone-antimycin insensitive respiration together with Hoechst for nuclear staining in situ when normalized to cell counts. After the analysis and nuclear staining, the XFp microplate was transferred to the Cytation 5, and the nuclear images were captured, the individual nuclei were identified and counted by BioTek Gen5 software. Data were expressed as pmol of O2 per minute and normalized by nuclear staining and baselined to pre-compound addition.
Assay conditions were as stated below.
Assay specifics on assay conditions are indicated below when readouts were normalized to cell counts. […]

Another test has as its system HepG2 cells. The test can be described thus: Mitochondrial membrane potential (MITO-ID MP detection Kit). The test is classed as cell-based. The following applies: Homo sapiens, 168 h, 7 days. As to the method: HepG2 cells (ATCC, HB-8065) were cultured (5% CO2 at 37° C.) and plated in Poly-D-Lysine 384-Well plate (Corning, 356663) at a density of 160000 cells/mL in 50 μL/well. Culture and assay media consisted of DMEM (Gibco, 11995-065) supplemented with 1% Penicillin-Streptomycin and 10% FBS (Hyclone, SV30087.03).
MITO-ID® MP detection Kit (ENZ-51018) was used and manufacturer instructions followed. Cells were allowed to settle for 30 min at room temperature and further incubated overnight (37° C. and 5% CO2) for adherence. Next day, test compounds (50-10 μM) and vehicle DMSO (0.2%) were added at the recommended volumes to the 384-well plate for 7 days without media change using a Tecan compound dispenser. All the solutions and wash buffers were prepared and dispensed according to manufacturer's volumes for a 384-well plate format.

For test [5], the system named is primary fibroblasts (healthy controls and PA, MMA, BCKDK, PDH, VLCAD, LS, PC, GA, VLCFA, KSS, FXN, HD). The experiment in a line: Measurement of ROS (H2DCFDA) in primary fibroblasts. Type of test: cell-based, human. To be noted: Homo sapiens, procedure Example 812. As to the method: Primary adherent fibroblasts were cultured in minimum essential medium (MEM) (Gibco, 25030081) supplemented with 2 mM L-Glutamine (Gibco, 25030081), 15% fetal bovine serum (FBS) (Gibco, 26400044) and 1% penicillin/streptomycin (Gibco, 5140122) at 37° C. and 5% CO2. Cells were collected for either passaging or experiment at ˜70-80% confluence. Cells were obtained by trypsinization and seeded in cell culture microplates either white plate (Thermo Fisher Scientific, 152028) for luminescent measurement or black plate (Thermo Fisher Scientific, 165305) for fluorescent based read out for different assays listed below. Cells were obtained by trypsinization and […] were seeded and allowed to adhere for 16-18 hours to have confluency around 70-80% in the cell well with culture media. After 24 hours prior to measurements (37° C., 5% CO2) media was changed to Dulbecco's Modified Eagle Medium (DMEM, Agilent Seahorse cat #103575-100) with the appropriate supplements as stated below.
Primary fibroblasts assayed were Healthy controls (GM00041, GM05659, GM23974 Coriell Institute for Medical Research), Propionic Acidemia (PA) (GM00371, GM03590 Coriell Institute for Medical Research, Tsi 6337 Trans-Hit Bio), Methylmalonic Acidemia (MMA) (GM01673, Coriell Institute for Medical Research, Tsi 5224, Tsi 4290 Trans-Hit Bio), Branched chain ketoacid dehydrogenase kinase (BCKDK) (GM00612, GM00649 Coriell Institute for Medical Research), Subnormal activation of pyruvate dehydrogenase complex (PDH) (GM01503 Coriell Institute for Medical Research), Very long-chain acyl-CoA dehydrogenase (VLCAD) (GM17475), Leigh Syndrome (LS) (GM03672, GM13411 Coriell Institute for Medical Research), Pyruvate Carboxylase Deficiency (PC) (GM00444 Coriell Institute for Medical Research), Glutaric Acidemia-I (GA), Impaired VLCFA oxidation (VLCFA) (GM13262), Kearns-Sayre Syndrome (KSS) (GM06225 Coriell Institute for Medical Research), Friedreich's Ataxia (FXN), Huntington's disease (HD) (GM21756 Coriell Institute for Medical Research). Next, cells were treated with compounds (10 μM) and ROS H2DCFDA (22 μM) dye for 2 hours in PA, MMA lines and for 24h for the other fibroblast lines. Kinetic read was started immediately with a i3x plate reader (492/527 nm) for 60 minutes.
A total dead cell count was performed as described in Example 817 and only alive cells were used for analysis.

The mark [6] stands for this setting: Fibroblast, BCKD GM00612, Assay Condition A, read-out: Decreased ROS by at least 10%.

Turning to `COC(=O)C[C@H](N)C(=O)SCCNC(=O)CCNC(=O)[C@H](O)C(C)(C)CO` [Compound 451], the “% decrease in Eotaxin-3” value in test [1] is given as at least 10%.
As to `CC(C)(CO)[C@@H](O)C(=O)NCCC(=O)NCCS` [Prep Ex 5], the inhibition at 10 µM is at least 20% in test [2] (read-out: % decrease in IL-1α); at least 10% in test [2] (read-out: % decrease in IL-8); at least 10% in test [2] (read-out: % decrease in TissueFactor); at least 20% in test [1] (Homo sapiens, HUVEC, 24 h, 10 uM, read-out: % decrease in E-Selectin). Besides, the activation at 10 µM in test [2] (read-out: % increase in sTNFα) is at least 20%.
`CC1(C)OC(=O)C(CC(=O)SCCNC(=O)CCNC(=O)[C@H](O)C(C)(C)CO)O1` (stereo partly drawn) [Compound 1238, S-(2-(3-((R)-2,4-dihydroxy-3,3-dimethylbutanamido)propanamido)ethyl) 2-(2,2-dimethyl-5-oxo-1,3-dioxolan-4-yl)ethanethioate]: the inhibition at 10 µM in test [3] (10 uM, read-out: % decrease in Macrophage TNFα Secretion) is at least 30%. Also, the activation at 10 µM in test [4] (MMA Tsi 5224, assay condition A (10 mM glucose, 2 mM L-glutamine, 1 mM pyruvate, 10% FBS)) is at least 10%. For the same molecule, the activation at 50 µM in the test on HepG2 cells (50 uM, read-out: % increase in Mitochondrial Membrane Potential) stood at 20%.
Take `CCC(=O)C(C)C(=O)SCCNC(=O)CCNC(=O)[C@H](O)C(C)(C)CO` (stereo partly drawn) [Compound 1251, S-(2-(3-((R)-2,4-dihydroxy-3,3-dimethylbutanamido)propanamido)ethyl) 2-methyl-3-oxopentanethioate]: the inhibition at 10 µM was at least 10% in test [5] (setting [6]); at least 30% in test [5] (Fibroblast, VLCFA GM13262, Assay Condition C, read-out: Decreased ROS by at least 30%); at least 10% in test [5] (FXN GM04078, Assay Condition C, read-out: Decreased ROS by at least 10%); at least 30% in test [5] (FXN GM04078, Assay Condition C, read-out: Decreased ROS by at least 30%). The inhibition at 50 µM in test [3] (read-out: % decrease in Macrophage IL-6 Secretion) was at least 30%; in test [3] (read-out: % decrease in Macrophage TNFα Secretion) it was at least 30%; in the test on HepG2 cells (50 uM, read-out: % decrease in Mitochondrial Membrane Potential), above 30%.
Regarding `CC(=O)NCCCC(=O)OCC(C)(C)[C@@H](O)C(=O)NCCC(=O)NCCSC(=O)CC(=O)NCCc1c[nH]cn1` [Compound 633], in test [1], the “% decrease in Eotaxin-3” value is given as at least 10%.
For the molecule `CC(C)(CO)[C@@H](O)C(=O)NCCC(=O)NCCSC(=O)C(O)CO` (some centres unmarked) [Compound 399], the inhibition at 10 µM is at least 10% in test [5] (setting [6]) and above 30% in the test on HepG2 cells (10 uM, read-out: % decrease in Mitochondrial Membrane Potential). The activation at 10 µM in test [4] (MMA Tsi 5224, assay condition D (1 mM glucose, 10% FBS)) is at least 10%.
